PubChem BioAssay (NCI)
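These data come from cells grown in 96-well plates and exposed to compound for 48 hours at five concentrations. GI50 is the concentration that inhibits growth by half. Definition used: TGI = concentration required for complete inhibition of growth.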

Experiments:
Test in all cases: DTP human tumour cell line panel, 48 h
SK-MEL-5 melanoma = tested on: SK-MEL-5 melanoma
SK-MEL-2 melanoma = tested on: SK-MEL-2 melanoma
NCI-H23 lung = tested on: NCI-H23 lung
IGROV1 ovarian = tested on: IGROV1 ovarian
SNB-19 CNS = tested on: SNB-19 CNS
OVCAR-8 ovarian = tested on: OVCAR-8 ovarian
A549 NSCLC = tested on: A549 NSCLC
SF-268 CNS = tested on: SF-268 CNS
K-562 leukemia = tested on: K-562 leukemia
NCI/ADR-RES ovarian = tested on: NCI/ADR-RES ovarian

SMILES | TGI (SK-MEL-5 melanoma) | TGI (SK-MEL-2 melanoma) | TGI (NCI-H23 lung) | TGI (IGROV1 ovarian) | TGI (SNB-19 CNS) | TGI (OVCAR-8 ovarian) | TGI (A549 NSCLC) | TGI (SF-268 CNS) | TGI (K-562 leukemia) | GI50 (SK-MEL-5 melanoma) | GI50 (NCI-H23 lung) | GI50 (IGROV1 ovarian) | GI50 (NCI/ADR-RES ovarian) | TGI (NCI/ADR-RES ovarian) | GI50 (SNB-19 CNS) | GI50 (OVCAR-8 ovarian) | GI50 (A549 NSCLC) | GI50 (SF-268 CNS) | GI50 (SK-MEL-2 melanoma) | GI50 (K-562 leukemia)
CC1=C(/C=C/C2=CC(=C\C(=O)O)/CC(C3=C(C)CCCC3(C)C)C2)C(C)(C)CCC1 (configuration not stated) | 28 µM | 23.5 µM | 27.6 µM | 26.4 µM | 27.7 µM | 27.8 µM | 19.6 µM | 36.1 µM |  |  |  |  |  |  |  |  |  |  |  | 
O=C(c1cc2c(C(F)(F)F)onc2c2ccccc12)C(F)(F)F | 15.5 µM | 13.6 µM | 4.25 µM | > 100 µM | > 27.9 µM | 7.66 µM | > 72.1 µM | 19.9 µM | > 40 µM |  |  |  |  |  |  |  |  |  |  | 
CC1Cc2c(N)nc(N3CCOCC3)nc2NC1=O (configuration not stated) | > 100 µM | > 100 µM | > 100 µM | > 100 µM | > 100 µM | > 100 µM | > 100 µM |  | > 100 µM |  |  |  |  |  |  |  |  |  |  | 
CC(C(=O)c1ccccc1)C1(O)C(=O)Nc2ccccc21 (configuration not stated) | > 100 µM | > 100 µM | > 100 µM | > 100 µM | > 100 µM |  | > 100 µM | > 100 µM | > 100 µM |  |  |  |  |  |  |  |  |  |  | 
CCCC1C(=O)C(CC)Cc2c(OC)ccc(OC)c21 (configuration not stated) | > 100 µM | > 100 µM |  | > 100 µM | > 100 µM | > 100 µM | > 100 µM | > 100 µM | > 100 µM |  |  |  |  |  |  |  |  |  |  | 
CCN(CC)C(=O)CNC(=O)OC(C)(C)C | > 100 µM | > 100 µM | > 100 µM | > 100 µM | > 100 µM | > 100 µM | > 100 µM | > 100 µM | > 100 µM |  |  |  |  |  |  |  |  |  |  | 
CN(C)Cc1cccc(CN(C)C)[c]1[Sn]([Br])([c]1ccccc1)[c]1ccccc1 | 24.7 µM |  | 46.3 µM | 4.52 µM | 48.4 µM | 26.2 µM | 60.1 µM | 17.5 µM |  | 11 µM | 13.5 µM | 0.436 µM | 44 µM | > 100 µM | 18.7 µM | 12.4 µM | 17 µM | 3.77 µM |  | 
Cc1ccc(C(=O)CCC2C(=O)CC(C)(C)CC2=O)cc1 | > 100 µM | > 100 µM | > 100 µM | > 100 µM | > 100 µM | > 100 µM | > 100 µM | > 100 µM |  |  |  |  |  | > 100 µM |  |  |  |  |  | 
CC(C)c1cccc(C(C)C)c1N=C(N)C#N | > 100 µM | > 100 µM | > 100 µM | > 100 µM | > 100 µM | > 100 µM | > 61.1 µM | > 100 µM | > 61.7 µM |  |  |  |  |  |  |  |  |  |  | 
CC(=O)O[C@H]1CCC2[C@@H]3CCC4Nc5c(cnn5-c5ccccc5)C[C@]4(C)C3CC[C@@]21C (some centres not stated) | 22 µM | 35.8 µM | 21.2 µM | > 100 µM | 41.9 µM | 39.6 µM | 68.7 µM | > 100 µM | 74.3 µM |  |  |  |  |  |  |  |  |  |  | 
c1ccc2c(c1)nnn2CNc1ccc(N2CCOCC2)cc1 |  | > 100 µM | > 100 µM | > 100 µM | > 100 µM | > 100 µM | > 100 µM | > 100 µM | > 100 µM |  |  |  |  |  |  |  |  |  |  | 
O=C(N/C(=C\c1ccc([N+](=O)[O-])cc1)c1nc2ccc(Cl)cc2[nH]1)c1ccccc1 | 33.7 µM | 48.1 µM | 44.6 µM | 43.8 µM | > 100 µM | > 100 µM | 74.8 µM | 42.8 µM | 52.7 µM |  |  |  |  |  |  |  |  |  |  | 
CC1=C2C(=O)C(C)(C)C=C2C(=O)[C@](C)(O)C12CC2 | > 0.612 µM | > 1 µM | > 1 µM | > 1 µM | > 1 µM | > 1 µM | > 1 µM | > 1 µM | > 1 µM |  |  |  |  |  |  |  |  |  |  | 
CCN(CC)CCOC(=O)/C(=C/c1ccc(OC)cc1)c1cc(OC)c(OC)c(OC)c1 | 11.4 µM |  |  | > 100 µM | 80.6 µM | 74.2 µM | > 100 µM | > 100 µM | 27.9 µM |  |  |  |  |  |  |  |  |  |  | 
CCC(O)(c1ccc(OC)cc1)C(c1ccc(OCc2ccccc2)cc1)c1ccc(OCc2ccccc2)cc1 (configuration not stated) | > 100 µM | > 100 µM | > 100 µM | > 100 µM | > 100 µM | > 100 µM | > 100 µM | > 100 µM | > 100 µM |  |  |  |  |  |  |  |  |  |  | 
O=C1/C=C/[C@@H](O)[C@@H]2C[C@@H](O)C[C@H]2/C=C/CCC[C@H](CO)O1 | 2.08 µM | 5.95 µM | > 100 µM | > 100 µM | > 100 µM | > 100 µM | > 100 µM | > 100 µM |  | 0.705 µM | 2.25 µM | 4.2 µM | 3.17 µM | > 100 µM | 3.09 µM | 3 µM | 3.65 µM | 1.33 µM | 2.39 µM | 
C[C@@H](NC1CCC[C@@H]1O)c1ccccc1 (some centres not stated) | > 100 µM | > 100 µM |  | > 100 µM | > 100 µM | > 100 µM | > 100 µM |  | > 100 µM |  |  |  |  |  |  |  |  |  |  | 
Cc1cccc2c1NC(=O)[C@@]21[C@H](C(=O)c2ccccc2)[C@]2(C(=O)Nc3ccccc32)[C@H]2CCCN21 | > 100 µM | > 100 µM | > 100 µM |  | > 100 µM | 92.3 µM | > 100 µM | > 100 µM | > 100 µM | 84.7 µM | 47 µM |  | 20.4 µM | 71.5 µM | 19.2 µM | 25.2 µM | 58.9 µM | 30.8 µM | 50.5 µM | 33.1 µM
CCCCCCCC(=O)OCC1OC(n2cc(F)c(=O)[nH]c2=O)C(NC(=O)OCc2ccccc2)C(OC(=O)CCCCCCC)C1O (configuration not stated) | 11.1 µM | 57.1 µM | > 100 µM | > 100 µM |  | > 100 µM | > 100 µM | > 100 µM | 61.8 µM |  |  |  |  |  |  |  |  |  |  | 
NCCCn1c2c(c3cc4c(cc3c1=O)OCO4)C(=O)c1ccccc1-2 | 0.656 µM | > 70.3 µM | 2.09 µM |  | > 100 µM | 1.14 µM |  | 16.5 µM | 0.602 µM | 0.215 µM | 0.564 µM |  | 0.7 µM | 2.11 µM | 4.19 µM | 0.142 µM |  | 3.75 µM | 2.91 µM | 0.181 µM
